Measurements from US20230192638A1, “POLYPHENOLS DERIVATIVES” (Epirium Bio Inc., priority 2021, published 2023).
Like-named read-outs stand apart in the source and are kept apart here.

Test system: PGC-1α
Experiment: Single point PGC-1α assay (in-cell ELISA in differentiated C2C12 myotubes)
Type: cell-based
Details: Mus musculus, each compound tested at 0.01 nM, DMSO control as 100 %
Method: Culture conditions: DMEM containing 25 mM glucose with 10 % FBS supplementation; grown at 37° C. and 5 % CO2.
Assay Conditions: C2C12 cells were cultured in DMEM supplemented in 10 % FBS up to 80 % confluence. The cells were further trypsinized and seeded into a 96 well plate at a density of 5000 cells/well (well volume – 100 µL) (Day 0). Following attachment, the cells were allowed to reach 80-90% confluence in the plate (typically 48 hours post seeding) and further differentiated using DMEM + 2 % Horse Serum (200 µL/well). The media was changed every day or at least every alternate day for 5 days to allow myoblasts to differentiate into myotubes. On day 7 (post seeding), the cells were treated with standards and test compounds for PGC-1α assay.
PGC-1α assay: For the detection of PGC-1α, the cells were incubated with 0.5 µg/ml primary antibody (Merck, WH0010891M3) in PBS-T containing 5 % BSA at 4° C. overnight. The cells were then washed three times with PBS-T for 5 minutes and incubated with 1:1000 dilution secondary antibody (Anti- rabbit IgG, HRP-linked Antibody, Cell Signaling) in PBS-T with 1 % BSA for 1 hour at RT. Cells were washed three times with PBS-T for 5 minutes The cells were incubated with 100 µl TMB substrate solution for 30 minutes and the reaction was stopped with 100 µl of 2N H2SO4. Then the plate was read at 450 nm using ELISA plate reader and absorbance recorded. % activity was calculated using DMSO control as 100 %. (For plate optical density calculations, a background correction was taken at 540 nm). Each compound was tested at a concentration of 0.01 nM.

[1] = average, count 1, read-out: Single point PGC1-Alpha Assay: Average Activity (%)
[2] = read-out: Single point PGC1-Alpha Assay: Activity (%)

Cc1cc(O)cc(C2Oc3cc(O)cc(O)c3CC2O)c1 (stereo not drawn) was tested, and the activity at 10 pM [1] was 109% and the activity at 10 pM [2] was 109%.

In the case of Cc1cc(O)cc([C@H]2Oc3cc(O)cc(O)c3C[C@H]2O)c1, the activity at 10 pM [1] is reported as 103% and the activity at 10 pM [2] is reported as 103%.

Cc1cc(O)cc([C@@H]2Oc3cc(O)cc(O)c3C[C@@H]2O)c1 was tested, and the activity at 10 pM [1] was 114% and the activity at 10 pM [2] was 114%.

With Oc1cc(O)c2c(c1)O[C@@H](c1ccc(F)c(O)c1)[C@@H](O)C2 the activity at 10 pM [1] was 104% and the activity at 10 pM [2] was 104%.

COc1cc([C@@H]2Oc3cc(O)cc(O)c3C[C@@H]2O)ccc1O showed an activity at 10 pM [1] of 124% and an activity at 10 pM [2] of 124%.

With Oc1cc(F)cc([C@@H]2Oc3cc(O)cc(O)c3C[C@@H]2O)c1 the activity at 10 pM [1] was 117% and the activity at 10 pM [2] was 117%.
